# Key:
# [1] = system: GP2D (KRAS G12D) cells; assay: 2D Cell Viability Assay (CellTiter-Glo); type: cell-based; conditions: 4 days, CellTiter-Glo luminescence
# Protocol: Example B. 2D Cell Viability Assay
# Compounds were tested in a 384-well format for their ability to inhibit the viability of GP2D (KRAS G12D) cells in 2D assays. Compounds were serially diluted (1:3) in DMSO. The LabCyte ECHO Acoustic dispenser system was used to pre-spot assay plates with 200 nL of test molecule per well. 1000 cells/well (40 μL volume per well) in RPMI medium with 10% FBS, and Penicillin-Streptomycin-Glutamine were plated in pre-spotted 384-well plates (Greiner, Catalog #781076) on the BioTEK EL406 liquid dispenser with a 5 μL dispensing cassette (BioTek 7170011). The plates were incubated at 37° C., 5% CO2 for 4 days before addition of CellTiter-Glo (CTG) reagent and measurement of luminescence signal. EC50 values were defined as the compound concentration that causes a 50% decrease in luminescence signal and were calculated using a sigmoidal dose-response model to generate curve fits.
# [2] = molecular target: GDP-loaded KRAS G12D (Homo sapiens, UniProt P01116, G12D); assay: KRAS G12D (GDP) Biochemical Assay (TR-FRET probe displacement); type: binding; conditions: 0.5 nM enzyme, 2 hours at room temperature
# Chain of GDP-loaded KRAS G12D (P01116 1-188 isoform P01116-2 G12D): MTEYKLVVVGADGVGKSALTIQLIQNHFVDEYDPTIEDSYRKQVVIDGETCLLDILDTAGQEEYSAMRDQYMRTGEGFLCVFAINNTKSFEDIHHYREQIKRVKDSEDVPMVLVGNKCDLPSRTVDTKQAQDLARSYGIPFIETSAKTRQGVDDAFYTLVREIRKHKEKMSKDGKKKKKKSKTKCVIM
# Protocol: Example A. KRAS G12D (GDP) Biochemical Assay
# Compounds were tested for binding to GDP-loaded KRAS G12D in a 384-well assay format using a TR-FRET probe displacement assay in buffer consisting of 50 mM Hepes (pH 7.4), 150 mM NaCl, 5 mM MgCl2 and 0.005% Tween-20. […] Compounds were serially diluted (1:3) in DMSO. The LabCyte ECHO Acoustic dispenser system was used to pre-spot the assay plates (384-well Non-Binding Surface plates, Corning, Catalog #3824) with 50 nL of compound. The compounds were pre-incubated with 5 μL of 2× final enzyme concentration for 30 minutes before adding 5 μL of 2× final concentration of Eu-streptavidin and TR-FRET probe (10 μL final reaction volume). The plates were incubated at room temperature for 2 hours before measuring TR-FRET ratio on the Envision plate reader. IC50 values were defined as the compound concentration that causes a 50% decrease in TR-FRET ratio and were calculated using a sigmoidal dose-response model to generate curve fits.
Structure (SMILES),"EC50 ([1]; GP2d, 96 h)",IC50 [2],EC50 [1]
"N#Cc1c(N)sc2cccc(-c3c(F)c4c5c(nc(OC[C@@]67CCCN6C[C@H](F)C7)nc5c3F)N3C[C@H]5CC[C@H](N5)[C@H]3CC4)c12 [Example 25, 2-amino-4-((1S,4R,14aR)-10,12-difluoro-8-(((2R,7aS)-2-fluorotetrahydro-1H-pyrrolizin-7a(5H)-yl)methoxy)-1,2,3,4,5,13,14,14a-octahydro-1,4-epiminoazepino[1′,2′:1,7]azepino[2,3,4-de]quinazolin-11-yl)benzo[b]thiophene-3-carbonitrile]",1.6 nM,0.12 nM,
"C#Cc1c(F)ccc2cc(N)nc(-c3c(F)c4c5c(nc(OC[C@@]67CCCN6C[C@H](F)C7)nc5c3F)N3C[C@H]5CC[C@H](N5)[C@H]3CCC4)c12 [Example 61, (S)-1-((1S,4R,15aR)-10,12-difluoro-8-(((2R,7aS)-2-fluorotetrahydro-1H-pyrrolizin-7a(5H)-yl)methoxy)-2,3,4,5,13,14,15,15a-octahydro-1H-1,4-epiminoazepino[1′,2′:1,8]azocino[2,3,4-de]quinazolin-11-yl)-8-ethynyl-7-fluoroisoquinolin-3-amine]",0.88 nM,0.02 nM,
"Cc1cc(N)nc(-c2nc3c4c(nc(OC[C@@]56CCCN5C[C@H](F)C6)nc4c2F)N2C[C@H]4CC[C@H](N4)[C@@H]2[C@@H](C)C3)c1C(F)(F)F [Example 17, 6-((5S,5aS,6S,9R)-1-fluoro-12-(((2R,7aS)-2-fluorotetrahydro-1H-pyrrolizin-7a(5H)-yl)methoxy)-5-methyl-4,5,5a,6,7,8,9,10-octahydro-3,10a,11,13,14-pentaaza-6,9-methanonaphtho[1,8-ab]heptalen-2-yl)-4-methyl-5-(trifluoromethyl)pyridin-2-amine]",25 nM,6.1 nM,
"Cc1cc(N)nc(-c2nc3c4c(nc(OC[C@@]56CCCN5C[C@H](F)C6)nc4c2F)N2C[C@H]4CC[C@H](N4)[C@H]2CCC3)c1C(F)(F)F [Example 7, 6-((6aR,7S,10R)-1-fluoro-13-(((2R,7aS)-2-fluorotetrahydro-1H-pyrrolizin-7a(5H)-yl)methoxy)-5,6,6a,7,8,9,10,11-octahydro-4H-3,11a,12,14,15-pentaaza-7,10-methanocyclohepta[4,5]cycloocta[1,2,3-de]naphthalen-2-yl)-4-methyl-5-(trifluoromethyl)pyridin-2-amine]",11 nM,0.7 nM,
"N#Cc1c(N)sc2c(F)ccc(-c3c(F)c4c5c(nc(OC[C@@]67CCCN6C[C@H](F)C7)nc5c3F)N3C[C@H]5CC[C@H](N5)[C@H]3CC4)c12 (single isomer, unassigned) [Example 60]",,0.03 nM,1.8 nM
"C[C@H]1Cc2c(F)c(-c3ncc(F)c4sc(N)c(C#N)c34)c(F)c3nc(OC[C@@]45CCCN4C[C@H](F)C5)nc(c23)N2C[C@H]3CC[C@H](N3)[C@H]12 (single isomer, unassigned) [Example 51]",,0.8 nM,3.4 nM

# Source: patent US20250101042A1, “KRAS G12D MODULATING COMPOUNDS” (Gilead Sciences, Inc., priority 2023, published 2025)
